{
  "source": "PubChem BioAssay AID2060887",
  "about": "(Molecular Pharmacology Branch, DTP, NCI, 2025);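 also: spheroids exposed to compounds for 7 days before reading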;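 as to viability, T/C: 100% = DMSO vehicle control viability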",
  "system": "782815-120-R-J1-PDC complex spheroid viability",
  "test": "Anticancer human tumor 782815-120-R-J1-PDC patient-derived colon adenocarcinoma cell line growth inhibition [RAS]",
  "conditions": "for IC50: curve of first compound; for viability, T/C: stronger effect = lower value",
  "method_in_brief": "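Multi-cell-type spheroids: tumor cells plus HUVEC endothelial cells and mesenchymal stem cells. RAS-pathway inhibitors were combined with targeted agents, each dosed in half-log steps down from clinical Cmax, or from 10 microM when Cmax was unknown.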",
  "data": [
    {"smiles": "NC1c2ccccc2OC12CCN(c1cnc3c(N4CCCc5ncccc54)n[nH]c3n1)CC2", "note": "(centres undefined) + C#Cc1c(F)ccc2cc(O)cc(-c3ncc4c(N5CC6CCC(C5)N6)nc(OCC56CCCN5CC(F)C6)nc4c3F)c12", "values": [
      {"measurement": "IC50", "setting": "second compound 0.0316 µM", "result": "> 10000", "unit": "nM"},
      {"measurement": "IC50", "setting": "second compound 0.1 µM", "result": "> 10000", "unit": "nM"},
      {"measurement": "IC50", "setting": "second compound 0.316 µM", "result": "> 10000", "unit": "nM"},
      {"measurement": "IC50", "setting": "second compound 1 µM", "result": "> 10000", "unit": "nM"},
      {"measurement": "IC50", "setting": "second compound 3.16 µM", "result": "> 10000", "unit": "nM"},
      {"measurement": "IC50", "setting": "second compound 10 µM", "result": "> 10000", "unit": "nM"},
      {"measurement": "viability, T/C", "setting": "second compound 0.0316 µM, first compound 0.0316 µM", "result": 110, "unit": "%"},
      {"measurement": "viability, T/C", "setting": "second compound 0.0316 µM, first compound 0.1 µM", "result": 104, "unit": "%"},
      {"measurement": "viability, T/C", "setting": "second compound 0.0316 µM, first compound 0.316 µM", "result": 111, "unit": "%"},
      {"measurement": "viability, T/C", "setting": "second compound 0.0316 µM, first compound 1 µM", "result": 95.3, "unit": "%"},
      {"measurement": "viability, T/C", "setting": "second compound 0.0316 µM, first compound 3.16 µM", "result": 99.8, "unit": "%"},
      {"measurement": "viability, T/C", "setting": "second compound 0.0316 µM, first compound 10 µM", "result": 84, "unit": "%"},
      {"measurement": "viability, T/C", "setting": "second compound 0.1 µM, first compound 0.0316 µM", "result": 103, "unit": "%"},
      {"measurement": "viability, T/C", "setting": "second compound 0.1 µM, first compound 0.1 µM", "result": 96, "unit": "%"},
      {"measurement": "viability, T/C", "setting": "second compound 0.1 µM, first compound 0.316 µM", "result": 110, "unit": "%"},
      {"measurement": "viability, T/C", "setting": "second compound 0.1 µM, first compound 1 µM", "result": 106, "unit": "%"},
      {"measurement": "viability, T/C", "setting": "second compound 0.1 µM, first compound 3.16 µM", "result": 94.4, "unit": "%"},
      {"measurement": "viability, T/C", "setting": "second compound 0.1 µM, first compound 10 µM", "result": 76.6, "unit": "%"},
      {"measurement": "viability, T/C", "setting": "second compound 0.316 µM, first compound 0.0316 µM", "result": 99.6, "unit": "%"},
      {"measurement": "viability, T/C", "setting": "second compound 0.316 µM, first compound 0.1 µM", "result": 105, "unit": "%"},
      {"measurement": "viability, T/C", "setting": "second compound 0.316 µM, first compound 0.316 µM", "result": 103, "unit": "%"},
      {"measurement": "viability, T/C", "setting": "second compound 0.316 µM, first compound 1 µM", "result": 106, "unit": "%"},
      {"measurement": "viability, T/C", "setting": "second compound 0.316 µM, first compound 3.16 µM", "result": 96.7, "unit": "%"},
      {"measurement": "viability, T/C", "setting": "second compound 0.316 µM, first compound 10 µM", "result": 90.4, "unit": "%"},
      {"measurement": "viability, T/C", "setting": "second compound 1 µM, first compound 0.0316 µM", "result": 109, "unit": "%"},
      {"measurement": "viability, T/C", "setting": "second compound 1 µM, first compound 0.1 µM", "result": 102, "unit": "%"},
      {"measurement": "viability, T/C", "setting": "second compound 1 µM, first compound 0.316 µM", "result": 110, "unit": "%"},
      {"measurement": "viability, T/C", "setting": "second compound 1 µM, first compound 1 µM", "result": 106, "unit": "%"},
      {"measurement": "viability, T/C", "setting": "second compound 1 µM, first compound 3.16 µM", "result": 105, "unit": "%"},
      {"measurement": "viability, T/C", "setting": "second compound 1 µM, first compound 10 µM", "result": 83.7, "unit": "%"},
      {"measurement": "viability, T/C", "setting": "second compound 3.16 µM, first compound 0.0316 µM", "result": 102, "unit": "%"},
      {"measurement": "viability, T/C", "setting": "second compound 3.16 µM, first compound 0.1 µM", "result": 97.1, "unit": "%"},
      {"measurement": "viability, T/C", "setting": "second compound 3.16 µM, first compound 0.316 µM", "result": 102, "unit": "%"},
      {"measurement": "viability, T/C", "setting": "second compound 3.16 µM, first compound 1 µM", "result": 98.9, "unit": "%"},
      {"measurement": "viability, T/C", "setting": "second compound 3.16 µM, first compound 3.16 µM", "result": 99, "unit": "%"},
      {"measurement": "viability, T/C", "setting": "second compound 3.16 µM, first compound 10 µM", "result": 96.7, "unit": "%"},
      {"measurement": "viability, T/C", "setting": "second compound 10 µM, first compound 0.0316 µM", "result": 101, "unit": "%"},
      {"measurement": "viability, T/C", "setting": "second compound 10 µM, first compound 0.1 µM", "result": 101, "unit": "%"},
      {"measurement": "viability, T/C", "setting": "second compound 10 µM, first compound 0.316 µM", "result": 115, "unit": "%"},
      {"measurement": "viability, T/C", "setting": "second compound 10 µM, first compound 1 µM", "result": 100, "unit": "%"},
      {"measurement": "viability, T/C", "setting": "second compound 10 µM, first compound 3.16 µM", "result": 94.7, "unit": "%"},
      {"measurement": "viability, T/C", "setting": "second compound 10 µM, first compound 10 µM", "result": 80.4, "unit": "%"}
    ]},
    {"smiles": "CCc1c2c(nc3ccc(O)cc13)-c1cc3c(c(=O)n1C2)COC(=O)[C@]3(O)CC", "note": "+ C=CC(=O)N1CCN(c2nc(OCC3CCCN3C)nc3c(F)c(-c4nc(N)cc(C)c4C(F)(F)F)c(Cl)cc23)C(C)C1", "values": [
      {"measurement": "IC50", "setting": "second compound 0.00316 µM", "result": 4.1, "unit": "nM"},
      {"measurement": "IC50", "setting": "second compound 0.01 µM", "result": 3.93, "unit": "nM"},
      {"measurement": "IC50", "setting": "second compound 0.0316 µM", "result": 4.6, "unit": "nM"},
      {"measurement": "IC50", "setting": "second compound 0.1 µM", "result": 3.92, "unit": "nM"},
      {"measurement": "IC50", "setting": "second compound 0.316 µM", "result": 4.07, "unit": "nM"},
      {"measurement": "IC50", "setting": "second compound 1 µM", "result": 4.39, "unit": "nM"},
      {"measurement": "viability, T/C", "setting": "second compound 0.00316 µM, first compound 0.000949 µM", "result": 91.2, "unit": "%"},
      {"measurement": "viability, T/C", "setting": "second compound 0.00316 µM, first compound 0.003 µM", "result": 60.4, "unit": "%"},
      {"measurement": "viability, T/C", "setting": "second compound 0.00316 µM, first compound 0.00949 µM", "result": 22.1, "unit": "%"},
      {"measurement": "viability, T/C", "setting": "second compound 0.00316 µM, first compound 0.03 µM", "result": 9.72, "unit": "%"},
      {"measurement": "viability, T/C", "setting": "second compound 0.00316 µM, first compound 0.0949 µM", "result": 3.7, "unit": "%"},
      {"measurement": "viability, T/C", "setting": "second compound 0.00316 µM, first compound 0.3 µM", "result": 1.61, "unit": "%"},
      {"measurement": "viability, T/C", "setting": "second compound 0.01 µM, first compound 0.000949 µM", "result": 97.2, "unit": "%"},
      {"measurement": "viability, T/C", "setting": "second compound 0.01 µM, first compound 0.003 µM", "result": 58.9, "unit": "%"},
      {"measurement": "viability, T/C", "setting": "second compound 0.01 µM, first compound 0.00949 µM", "result": 21.3, "unit": "%"},
      {"measurement": "viability, T/C", "setting": "second compound 0.01 µM, first compound 0.03 µM", "result": 9.84, "unit": "%"},
      {"measurement": "viability, T/C", "setting": "second compound 0.01 µM, first compound 0.0949 µM", "result": 3.15, "unit": "%"},
      {"measurement": "viability, T/C", "setting": "second compound 0.01 µM, first compound 0.3 µM", "result": 1.53, "unit": "%"},
      {"measurement": "viability, T/C", "setting": "second compound 0.0316 µM, first compound 0.000949 µM", "result": 99.2, "unit": "%"},
      {"measurement": "viability, T/C", "setting": "second compound 0.0316 µM, first compound 0.003 µM", "result": 67.4, "unit": "%"},
      {"measurement": "viability, T/C", "setting": "second compound 0.0316 µM, first compound 0.00949 µM", "result": 20, "unit": "%"},
      {"measurement": "viability, T/C", "setting": "second compound 0.0316 µM, first compound 0.03 µM", "result": 9.96, "unit": "%"},
      {"measurement": "viability, T/C", "setting": "second compound 0.0316 µM, first compound 0.0949 µM", "result": 3.02, "unit": "%"},
      {"measurement": "viability, T/C", "setting": "second compound 0.0316 µM, first compound 0.3 µM", "result": 1.51, "unit": "%"},
      {"measurement": "viability, T/C", "setting": "second compound 0.1 µM, first compound 0.000949 µM", "result": 92.8, "unit": "%"},
      {"measurement": "viability, T/C", "setting": "second compound 0.1 µM, first compound 0.003 µM", "result": 59.4, "unit": "%"},
      {"measurement": "viability, T/C", "setting": "second compound 0.1 µM, first compound 0.00949 µM", "result": 19.2, "unit": "%"},
      {"measurement": "viability, T/C", "setting": "second compound 0.1 µM, first compound 0.03 µM", "result": 8.28, "unit": "%"},
      {"measurement": "viability, T/C", "setting": "second compound 0.1 µM, first compound 0.0949 µM", "result": 4.23, "unit": "%"},
      {"measurement": "viability, T/C", "setting": "second compound 0.1 µM, first compound 0.3 µM", "result": 1.49, "unit": "%"},
      {"measurement": "viability, T/C", "setting": "second compound 0.316 µM, first compound 0.000949 µM", "result": 100, "unit": "%"},
      {"measurement": "viability, T/C", "setting": "second compound 0.316 µM, first compound 0.003 µM", "result": 60.7, "unit": "%"},
      {"measurement": "viability, T/C", "setting": "second compound 0.316 µM, first compound 0.00949 µM", "result": 20.4, "unit": "%"},
      {"measurement": "viability, T/C", "setting": "second compound 0.316 µM, first compound 0.03 µM", "result": 9.08, "unit": "%"},
      {"measurement": "viability, T/C", "setting": "second compound 0.316 µM, first compound 0.0949 µM", "result": 3.9, "unit": "%"},
      {"measurement": "viability, T/C", "setting": "second compound 0.316 µM, first compound 0.3 µM", "result": 1.28, "unit": "%"},
      {"measurement": "viability, T/C", "setting": "second compound 1 µM, first compound 0.000949 µM", "result": 99.3, "unit": "%"},
      {"measurement": "viability, T/C", "setting": "second compound 1 µM, first compound 0.003 µM", "result": 65, "unit": "%"},
      {"measurement": "viability, T/C", "setting": "second compound 1 µM, first compound 0.00949 µM", "result": 19.3, "unit": "%"},
      {"measurement": "viability, T/C", "setting": "second compound 1 µM, first compound 0.03 µM", "result": 10.1, "unit": "%"},
      {"measurement": "viability, T/C", "setting": "second compound 1 µM, first compound 0.0949 µM", "result": 3.83, "unit": "%"},
      {"measurement": "viability, T/C", "setting": "second compound 1 µM, first compound 0.3 µM", "result": 1.36, "unit": "%"}
    ]}
  ]
}
